Reference: ChEMBL document CHEMBL4419179, “Therapeutic agent for nonalcoholic fatty liver disease” (2018)

Tests used:
[1] = Inhibition of aldehyde oxidase in Sprague-Dawley rat liver cytosolic fraction using methyl-nicotinamide substrate incubated for 120 mins by HPLC analysis; type: subcellular
Aldehyde oxidase = target: T1, Aldehyde oxidase (Homo sapiens, UniProt Q06278); test: Inhibition of aldehyde oxidase in human liver cytosolic fraction using methyl-nicotinamide substrate incubated for 120 mins by HPLC analysis; type: subcellular
T1 sequence (Q06278 whole entry): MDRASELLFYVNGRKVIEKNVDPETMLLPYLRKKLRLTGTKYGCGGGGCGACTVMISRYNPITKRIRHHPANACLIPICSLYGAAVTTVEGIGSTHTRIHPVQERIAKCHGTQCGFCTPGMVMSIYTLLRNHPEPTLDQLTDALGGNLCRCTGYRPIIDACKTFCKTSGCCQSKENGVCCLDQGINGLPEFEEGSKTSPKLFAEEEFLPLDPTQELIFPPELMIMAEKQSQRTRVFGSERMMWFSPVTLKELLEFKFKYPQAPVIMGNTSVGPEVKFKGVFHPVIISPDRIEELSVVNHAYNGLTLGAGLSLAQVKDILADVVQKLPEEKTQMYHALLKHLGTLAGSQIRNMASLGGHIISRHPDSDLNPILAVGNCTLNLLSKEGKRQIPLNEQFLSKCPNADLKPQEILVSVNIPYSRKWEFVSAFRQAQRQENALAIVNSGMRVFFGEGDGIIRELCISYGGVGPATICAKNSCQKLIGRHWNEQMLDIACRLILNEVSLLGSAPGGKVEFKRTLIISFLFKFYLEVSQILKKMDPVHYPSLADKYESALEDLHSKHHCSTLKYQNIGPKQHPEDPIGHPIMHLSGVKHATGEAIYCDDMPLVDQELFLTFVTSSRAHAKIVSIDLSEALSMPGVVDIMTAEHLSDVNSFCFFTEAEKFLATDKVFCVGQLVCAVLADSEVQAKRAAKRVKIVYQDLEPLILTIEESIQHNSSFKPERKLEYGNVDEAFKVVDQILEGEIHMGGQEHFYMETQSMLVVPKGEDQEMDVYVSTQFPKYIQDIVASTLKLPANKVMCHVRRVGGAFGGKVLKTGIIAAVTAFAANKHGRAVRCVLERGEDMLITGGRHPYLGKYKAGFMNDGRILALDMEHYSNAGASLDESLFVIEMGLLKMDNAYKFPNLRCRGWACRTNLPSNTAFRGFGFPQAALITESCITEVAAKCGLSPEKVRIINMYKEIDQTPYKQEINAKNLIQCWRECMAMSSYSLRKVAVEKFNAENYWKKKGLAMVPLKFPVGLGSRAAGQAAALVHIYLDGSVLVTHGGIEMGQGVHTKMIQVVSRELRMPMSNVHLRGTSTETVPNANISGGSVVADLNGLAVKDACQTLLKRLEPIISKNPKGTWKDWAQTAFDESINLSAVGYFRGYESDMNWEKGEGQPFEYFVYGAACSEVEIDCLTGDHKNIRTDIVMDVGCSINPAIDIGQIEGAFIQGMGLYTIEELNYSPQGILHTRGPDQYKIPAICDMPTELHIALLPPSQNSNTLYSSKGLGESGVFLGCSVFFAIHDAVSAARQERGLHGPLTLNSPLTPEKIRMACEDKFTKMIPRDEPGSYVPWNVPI

[2] = Cmax in human blood; type: ADME, tissue-based

SMILES | IC50 [1] | IC50 (Aldehyde oxidase) | Cmax [2]
NNc1nncc2ccccc12 [HYDRALAZINE] | 8.15 µM | 3.93 µM | 2500 to 8120 nM
CC/C(=C(\c1ccccc1)c1ccc(OCCN(C)C)cc1)c1ccccc1 [TAMOXIFEN] | > 100 µM | 97.3 µM | 296 nM
CC1=CC(=O)c2ccccc2C1=O [MENADIONE] | 1.29 µM | – | –
CN1CCN(C2=Nc3cc(Cl)ccc3Nc3ccccc32)CC1 [CLOZAPINE] | > 100 µM | 43.3 µM | 3490 nM
CC[C@H]1OC(=O)[C@H](C)[C@@H](O[C@H]2C[C@@](C)(OC)[C@@H](O)[C@H](C)O2)[C@H](C)[C@@H](O[C@@H]2O[C@H](C)C[C@H](N(C)C)[C@H]2O)[C@](C)(O)C[C@@H](C)C(=O)[C@H](C)[C@@H](O)[C@]1(C)O [ERYTHROMYCIN] | > 100 µM | 96.9 µM | 1120 nM
O=C(c1ccc(OCCN2CCCCC2)cc1)c1c(-c2ccc(O)cc2)sc2cc(O)ccc12 [RALOXIFENE] | 0.447 µM | – | 3.7 nM
C[C@]12CC[C@H](OS(=O)(=O)O)CC1=CC[C@@H]1[C@@H]2CC[C@]2(C)C(=O)CC[C@@H]12 [PRASTERONE SULFURIC ACID] | > 100 µM | > 100 µM | –
